# Laboratory results as given in patent US20080021217A1, “HETEROCYCLIC INHIBITORS OF RHO KINASE” (priority 2006, published 2008).
# Experiments:
# [1] = target: T1, recombinant N-terminal GST-tagged human Rho kinase 1 (ROCK1, amino acids 1-535) (Homo sapiens, UniProt Q13464); experiment: In vitro Rho kinase assay (luciferase-based ATP consumption), ROCK1; assay type: biochemical
# T1 construct: ROCK1, amino acids 1-535, Invitrogen Inc., cat. #PV-3691; GST (N); purchased Invitrogen Inc. PV-3691
# Experimental: (§1) Rho kinase biochemical assays described below depend on firefly luciferase-based, indirect measurement of total ATP consumption by the kinase following incubation with substrate and ATP. 25 μl of Rho kinase assay buffer (20 mM Tris-HCL [pH 7.5], 1 mM MgCl2, 0.4 mM CaCl2, 0.15 mM EGTA, 0.1 mg/ml bovine serum albumin) containing 0.82 μg/ml of recombinant N-terminal GST-tagged human Rho kinase 1 (ROCK1, amino acids 1-535, Invitrogen Inc., cat. #PV-3691) or recombinant N-terminal GST-tagged human Rho kinase 2 (ROCK2, amino acids 1-552, Invitrogen Inc., cat #PV3759), 100 μg/ml S6 peptide substrate (related to amino acids 218-249 of the human 40S ribosomal protein S6, and suitable for ROCK1 or ROCK2, e.g. Upstate/Millipore Inc., cat #12-420), and 3 µM ATP are dispensed to wells of a 384 multi-well opaque plate. The plate is centrifuged for 30 seconds at approximately 200×g. 240 nl of test compound in DMSO is dispensed to each well by passive pin transfer. The lag phase of this in vitro kinase reaction permits addition of compounds soon after the reaction initiates. The reaction is allowed to incubate at 30° C. for 2 hours. The assay plates are sealed and maintained in a humidified environment. After 2 hours, 25 μl of easyLite protein kinase assay reagent (Perkin-Elmer, Inc.) is dispensed. After an additional 10 minute incubation at room temperature (about 22° C.), luminescence activity is measured on a Molecular Devices Analyst multi-mode plate reader or other suitable plate reader. Kinase inhibition results in less ATP consumption, and therefore increased luminescence signal. Negative control activity is measured with DMSO lacking any test compound. The positive control is 2-methyl-1-(4-methylisoquinolin-5-ylsulfonyl)perhydro-1,4-diazepine hydrochloride (aka H-1152P, HCl salt). Efficacy is measured as a percentage of positive control activity. […] In some cases, kinase reactions and compound testing are performed in 1536 multi-well plates under similar conditions, with assay volumes appropriately scaled. The designated NT means the cited example was not tested.
# [2] = target: T2, recombinant N-terminal GST-tagged human Rho kinase 2 (ROCK2, amino acids 1-552) (Homo sapiens, UniProt O75116); experiment: In vitro Rho kinase assay (luciferase-based ATP consumption), ROCK2; assay type: biochemical
# T2 construct: ROCK2, amino acids 1-552, Invitrogen Inc., cat #PV3759; GST (N); purchased Invitrogen Inc. PV3759
# T2 sequence (O75116 1-552): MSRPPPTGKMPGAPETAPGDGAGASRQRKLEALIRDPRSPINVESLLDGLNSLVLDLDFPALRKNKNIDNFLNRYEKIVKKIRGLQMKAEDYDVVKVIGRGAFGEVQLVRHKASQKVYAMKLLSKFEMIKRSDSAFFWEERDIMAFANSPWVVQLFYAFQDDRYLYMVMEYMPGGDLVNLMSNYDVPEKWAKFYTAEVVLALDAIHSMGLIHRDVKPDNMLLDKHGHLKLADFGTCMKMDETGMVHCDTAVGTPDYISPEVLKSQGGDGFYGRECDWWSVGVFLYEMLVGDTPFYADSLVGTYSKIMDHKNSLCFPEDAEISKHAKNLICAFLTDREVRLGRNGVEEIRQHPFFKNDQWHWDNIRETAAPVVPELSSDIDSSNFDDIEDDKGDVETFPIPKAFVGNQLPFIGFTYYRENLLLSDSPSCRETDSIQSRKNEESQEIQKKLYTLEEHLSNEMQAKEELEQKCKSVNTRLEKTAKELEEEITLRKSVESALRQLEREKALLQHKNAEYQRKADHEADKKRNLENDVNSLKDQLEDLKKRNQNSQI
# Experimental: as §1
# T1 sequence (Q13464 1-535): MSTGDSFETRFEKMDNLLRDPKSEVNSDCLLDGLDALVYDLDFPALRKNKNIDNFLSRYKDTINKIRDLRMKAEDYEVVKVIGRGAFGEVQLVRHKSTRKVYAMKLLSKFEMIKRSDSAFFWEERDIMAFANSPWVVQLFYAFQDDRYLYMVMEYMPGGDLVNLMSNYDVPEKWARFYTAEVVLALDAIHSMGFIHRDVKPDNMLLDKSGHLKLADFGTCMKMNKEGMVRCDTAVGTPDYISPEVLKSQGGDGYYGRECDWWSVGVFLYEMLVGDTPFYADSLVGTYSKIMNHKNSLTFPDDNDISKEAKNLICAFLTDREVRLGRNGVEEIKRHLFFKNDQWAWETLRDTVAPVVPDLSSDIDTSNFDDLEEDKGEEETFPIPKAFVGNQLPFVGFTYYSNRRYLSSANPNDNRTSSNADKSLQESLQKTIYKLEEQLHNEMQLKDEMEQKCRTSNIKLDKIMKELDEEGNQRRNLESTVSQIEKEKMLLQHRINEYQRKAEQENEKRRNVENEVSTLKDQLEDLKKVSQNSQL
SMILES,IC50 [1],IC50 [2]
"O=C(NCc1nc(-c2ccncc2)n[nH]1)c1cccc(Cl)c1O [Example 26, 3-chloro-2-hydroxy-N-((3-(pyridin-4-yl)-1H-1,2,4-triazol-5-yl)methyl)benzamide]",< 5 µM,< 5 µM
"CC(C)(C)C(=O)Oc1ccc(C(=O)NCc2nc(-c3ccncc3)n[nH]2)c(OC(=O)C(C)(C)C)c1 [Example 37, 4-((3-(Pyridin-4-yl)-1H-1,2,4-triazol-5-yl)methylcarbamoyl)-1,3-phenylene bis(2,2-dimethylpropanoate)]",> 5 µM,> 5 µM
"COc1ccc(C(=O)NCc2nc(-c3ccncc3)n[nH]2)c(O)c1 [Example 24, 2-hydroxy-4-methoxy-N-((3-(pyridin-4-yl)-1H-1,2,4-triazol-5-yl)methyl)benzamide]",< 5 µM,< 5 µM
"COc1cccc(C(=O)NCc2nc(-c3ccncc3)no2)c1 [Example 3, 3-methoxy-N-((3-(pyridin-4-yl)-1,2,4-oxadiazol-5-yl)methyl)benzamide]",> 5 µM,> 5 µM
"CS(=O)(=O)Nc1ccccc1C(=O)NCc1nc(-c2ccncc2)n[nH]1 [Example 29, 2-(Methylsulfonamido)-N-((3-(pyridin-4-yl)-1H-1,2,4-triazol-5-yl)methyl)benzamide]",> 5 µM,> 5 µM
"CS(=O)(=O)Nc1cccc(C(=O)NCc2nc(-c3ccncc3)n[nH]2)c1 [Example 21, 3-(methylsulfonamido)-N-((3-(pyridin-4-yl)-1H-1,2,4-triazol-5-yl)methyl)benzamide]",> 5 µM,> 5 µM
"O=C(NCc1c[nH]c(-c2ccncc2)n1)c1ccc(O)cc1O [Example 12, 2,4-dihydroxy-N-((2-(pyridin-4-yl)-1H-imidazol-4-yl)methyl)benzamide]",< 5 µM,< 5 µM
"O=C(NCc1nc(-c2ccncc2)n[nH]1)c1cccs1 [Example 16, N-((3-(pyridin-4-yl)-1H-1,2,4-triazol-5-yl)methyl)thiophene-2-carboxamide]",< 5 µM,< 5 µM
"O=C(NCc1nnc(-c2ccnc3[nH]ccc23)o1)c1ccc(O)cc1O [Example 76, N-((5-(1H-Pyrrolo[2,3-b]pyridin-4-yl)-1,3,4-oxadiazol-2-yl)methyl)-2,4-dihydroxybenzamide]",< 5 µM,< 5 µM
"CC(NC(=O)c1cccs1)c1nc(-c2ccncc2)n[nH]1 (stereo not drawn) [Example 65, N-(1-(3-(Pyridin-4-yl)-1H-1,2,4-triazol-5-yl)ethyl)thiophene-2-carboxamide]",< 5 µM,< 5 µM
"O=C(CCc1nc(-c2ccncc2)n[nH]1)c1ccc(O)cc1 [Example 63, 1-(4-hydroxyphenyl)-3-(3-(pyridin-4-yl)-1H-1,2,4-triazol-5-yl)propan-1-one]",< 5 µM,< 5 µM
"Cc1cccc(C(=O)NCc2nc(-c3c[nH]c4ncccc34)n[nH]2)c1O [Example 71, N-((3-(1H-pyrrolo[2,3-b]pyridin-3-yl)-1H-1,2,4-triazol-5-yl)methyl)-2-hydroxy-3-methylbenzamide]",< 5 µM,> 5 µM
"CC(C)c1cccc(C(=O)NCc2nc(-c3ccncc3)n[nH]2)c1O [Example 41, 2-Hydroxy-3-isopropyl-N-((3-(pyridin-4-yl)-1H-1,2,4-triazol-5-yl)methyl)benzamide]",< 5 µM,< 5 µM
"CC(C)(C)OC(=O)NCCCC(NC(=O)c1ccc(O)cc1O)c1nc(-c2ccncc2)n[nH]1 (stereo not drawn) [Example 78, tert-Butyl 4-(2,4-dihydroxybenzamido)-4-(3-(pyridin-4-yl)-1H-1,2,4-triazol-5-yl)butylcarbamate]",< 5 µM,< 5 µM
"Cc1cccc(C(=O)NCc2c[nH]c(-c3ccncc3)n2)c1O [Example 13, 2-hydroxy-3-methyl-N-((2-(pyridin-4-yl)-1H-imidazol-4-yl)methyl)benzamide]",> 5 µM,> 5 µM
"c1ccc(COc2ccc(CNCc3nc(-c4ccncc4)n[nH]3)cc2)cc1 [Example 56, N-(4-(Benzyloxy)benzyl)-1-(3-(pyridin-4-yl)-1H-1,2,4-triazol-5-yl)methanamine]",> 5 µM,> 5 µM
"O=C(NCc1nc(-c2ccncc2)c[nH]1)c1cccs1 [Example 5, N-((4-(pyridin-4-yl)-1H-imidazol-2-yl)methyl)thiophene-2-carboxamide]",< 5 µM,< 5 µM

SMILES,IC50 [1],IC50 [2]
"O=C(NCc1nc(-c2c[nH]c3ncccc23)n[nH]1)c1cccs1 [Example 70, N-((3-(1H-pyrrolo[2,3-b]pyridin-3-yl)-1H-1,2,4-triazol-5-yl)methyl)thiophene-2-carboxamide]",< 5 µM,< 5 µM
"Cc1c(Cl)ccc(S(=O)(=O)NCc2nc(-c3ccncc3)n[nH]2)c1O [Example 32, 4-Chloro-2-hydroxy-3-methyl-N-((3-(pyridin-4-yl)-1H-1,2,4-triazol-5-yl)methyl)benzenesulfonamide]",> 5 µM,> 5 µM
"Cc1cc(C(=O)NCc2nc(-c3ccncc3)n[nH]2)ccc1O [Example 45, 4-Hydroxy-3-methyl-N-((3-(pyridin-4-yl)-1H-1,2,4-triazol-5-yl)methyl)benzamide]",< 5 µM,< 5 µM
O=C(NCc1nc(-c2c[nH]c3ncccc23)n[nH]1)c1ccc(O)cc1O [Example 69],< 5 µM,< 5 µM
"COc1cccc(C(=O)NCc2nc(-c3c[nH]c4ncccc34)cs2)c1 [Example 74, N-((4-(1H-pyrrolo[2,3-b]pyridin-3-yl)thiazol-2-yl)methyl)-3-methoxybenzamide]",< 5 µM,< 5 µM
"Cc1ccsc1C(=O)NCc1nc(-c2ccncc2)n[nH]1 [Example 47, 3-Methyl-N-((3-(pyridin-4-yl)-1H-1,2,4-triazol-5-yl)methyl)thiophene-2-carboxamide]",< 5 µM,< 5 µM
"O=C(NCc1nc(-c2ccncc2)n[nH]1)c1nccs1 [Example 20, N-((3-(pyridin-4-yl)-1H-1,2,4-triazol-5-yl)methyl) thiazole-2-carboxamide]",< 5 µM,< 5 µM
"O=C(c1cccs1)N1CCCC1c1nc(-c2ccncc2)n[nH]1 (stereo not drawn) [Example 67, (2-(3-(pyridin-4-yl)-1H-1,2,4-triazol-5-yl)pyrrolidin-1-yl) (thiophen-2-yl)methanone]",> 5 µM,> 5 µM
"O=C(NCc1nc(-c2ccncc2)no1)c1cccs1 [Example 2, N-((3-(pyridin-4-yl)-1,2,4-oxadiazol-5-yl)methyl)thiophene-2-carboxamide]",> 5 µM,> 5 µM
"Cc1c(O)ccc(C(=O)NCc2nc(-c3ccncc3)n[nH]2)c1O [Example 46, 2,4-Dihydroxy-3-methyl-N-((3-(pyridin-4-yl)-1H-1,2,4-triazol-5-yl)methyl)benzamide]",< 5 µM,< 5 µM
"COc1ccc(C(=O)NCc2nc(-c3ccncc3)no2)cc1 [Example 4, 4-methoxy-N-((3-(pyridin-4-yl)-1,2,4-oxadiazol-5-yl)methyl)benzamide]",> 5 µM,> 5 µM
"O=C(NCc1nc(-c2ccncc2)n[nH]1)c1cccc2cc[nH]c12 [Example 42, N-((3-(Pyridin-4-yl)-1H-1,2,4-triazol-5-yl)methyl)-1H-indole-7-carboxamide]",< 5 µM,< 5 µM
"CC(C)(C)OC(=O)NCC[C@H](NC(=O)c1ccc(O)cc1O)c1nc(-c2ccncc2)n[nH]1 [Example 77, (S)-tert-Butyl 3-(2,4-dihydroxybenzamido)-3-(3-(pyridin-4-yl)-1H-1,2,4-triazol-5-yl)propylcarbamate]",< 5 µM,< 5 µM
"CCc1cccc(C(=O)NCc2nc(-c3ccncc3)n[nH]2)c1O [Example 52, 3-Ethyl-2-hydroxy-N-((3-(pyridin-4-yl)-1H-1,2,4-triazol-5-yl)methyl)benzamide]",< 5 µM,< 5 µM
"O=S(=O)(NCc1nc(-c2ccncc2)n[nH]1)c1ccc(OCc2ccccc2)cc1 [Example 54, 4-(Benzyloxy)-N-((3-(pyridin-4-yl)-1H-1,2,4-triazol-5-yl)methyl)benzenesulfonamide]",> 5 µM,> 5 µM
"COc1ccc(C(=O)NCc2nc(-c3ccncc3)n[nH]2)cc1 [Example 19, 4-methoxy-N-((3-(pyridin-4-yl)-1H-1,2,4-triazol-5-yl)methyl)benzamide]",< 5 µM,< 5 µM
